The subject of series [1] is SY5Y-APP^695WT cells. Particulars: 50% cell death after 72 h treatment; read-out: Cytotox. CC50; cited from earlier work.
Series [2] relates to Aβ1–40 peptide secretion. As to conditions: SY5Y cells; cited from earlier work.
Series [3] deals with AICD (APP intracellular domain). The series can be described thus: AICD level by Western blotting in SY5Y-APP^WT cells. In kind it is cell-based, human. As to conditions: concentration increasing AICD 20-fold vs untreated control, read-out: AICD (C20). As to the method: (§1) The final and selected intermediate compounds were evaluated for their ability to modulate APP processing in the SH-SY5Y human neuroblastoma cell line stably expressing the neuronal isoform of human wild-type APP^695 (SY5Y-APP^WT), a well-established model for the study of APP metabolism. APP carboxy-terminal fragments (αCTFs and AICD) levels were assessed by Western blotting (WB). The effect of the reference and test compounds on αCTFs and AICD is expressed as the intensity of corresponding WB bands. The concentration of compounds able to increase 20-times αCTFs and AICD (C20) when compared to the control condition was calculated. Selected compounds were also evaluated for their ability to modulate the secretion of soluble APP fragments (sAPPα and sAPPβ). Aβ1–x levels (Aβ1–40 and Aβ1–42) after treatment with the reference and tested compounds were measured in the cell media by ELISA (Table 1). […] Selected hit compounds were then further evaluated for their ability to decrease the level of N-truncated Aβ peptides (Aβx–38, Aβx–40, and Aβx–42).
(§2) The human neuroblastoma cell line SY5Y-APP^695WT was maintained in Dulbecco’s modified Eagle medium (DMEM, high glucose, pyruvate—GIBCO, Life Technologies, Carlsbad, CA, USA) supplemented with 10% fetal bovine serum, 2 mM L-glutamine, 1 mM non-essential amino acids and penicillin/streptomycin (GIBCO, Life Technologies, Carlsbad, CA, USA) at 37 °C in a 5% CO2 humidified incubator [36]. For compound treatment, a 10 mM stock solution was diluted in freshly supplemented DMEM medium to obtain the precise final concentration of the drug. Cells were plated at a density of 5 × 10^5 cells per well into 12-well plates and cultured with 1 mL supplemented DMEM cell medium for 24 h before compound exposure. The following day, the cell medium was replaced with fresh medium containing the compounds diluted at the indicated concentrations. Cells were treated for 24 h. At the end of the treatments, the cell medium was collected and kept at −80 °C until use, cells were rinsed once with PBS and extracted in 100 µL of Laemmli buffer (10 mM Tris, 20% glycerol, and 2% sodium dodecyl sulfate) using a cell-scraper. The cell lysate was further sonicated (30 pulses of 0.5 s, 60 Hz) for 5 min. Total protein concentration was determined using the Pierce BCA Protein Assay Kit (Thermo Scientific, Waltham, MA, USA) according to the manufacturer’s instructions. Samples were stored at −80 °C until analysis.
(§3) Cell protein lysates were prepared for Western blot analysis by diluting the sample with 1 volume of NuPAGE® lithium dodecyl sulfate (LDS) 2X sample buffer supplemented with 20% NuPAGE® sample reducing agents (Invitrogen). Samples were heated for 10 min at 100 °C. Ten µg of total proteins per well were loaded onto precast 4–12% Criterion XT Bis-Tris polyacrylamide gels (Bio-Rad) and electrophoresis was achieved after applying a tension of 150 V for 90 min using a Criterion electrophoresis cell with the NuPAGE® MOPS SDS running buffer (1X). Proteins were transferred to a nitrocellulose membrane of […] pore size (G&E Healthcare, Madison, WI, USA) using the Criterion blotting system and applying a tension of 100 V for 45 min. To resolve proteins of low molecular weights such as carboxy-terminal fragments of APP, 12% Criterion XT Bis-Tris polyacrylamide gels (Bio-Rad, Hercules, CA, USA) were used, and electrophoresis was performed for 70 min at 150 V in a NuPAGE® MES SDS running buffer (1X). Proteins were transferred to a nitrocellulose membrane of 0.2 µm pore size (G&E Healthcare, Madison, WI, USA) at 100 V for 40 min. Molecular weight calibration was achieved using molecular weight markers (Novex and Magic Marks, Life Technologies, Carlsbad, CA, USA). Protein transfer and quality were determined by a reversible Ponceau Red coloration (0.2% xylidine Ponceau Red and 3% trichloroacetic acid). […]

For series [4], the system named is Aβ1–42 peptide secretion. Briefly: Aβ1–42 secretion in cell medium by ELISA. In kind it is cell-based, human. Particulars: SY5Y-APP^WT cells, 24 h treatment, mean ± SD of at least three experiments in triplicate. As to the method:
as §1, §2
(§4) Conditioned media of SY5Y-APP^695WT collected at the end of treatments were centrifuged at 1000× g for 5 min to eliminate cell debris.
(§5) Aβ1–40/Aβ1–42 peptides, Aβx–38/Aβx–40/Aβx–42, and sAPPα/sAPPβ concentrations in pg/mL were determined, respectively, using amyloid-beta 40 and 42 Human ELISA Kits (Invitrogen), the V-PLEX Plus Aβ Peptide Panel 1 (4G8) Kit (Meso Scale Diagnostics, MSD R©, Rockville, MD, USA), and the sAPPα/sAPPβ Multiplex Kit (Meso Scale Diagnostics, MSD R©, Rockville, MD, USA) according to the manufacturer’s instructions.

The test system of series [5] is sAPPβ secretion. The series can be described thus: sAPPβ secretion (MSD sAPPα/sAPPβ Multiplex Kit). In kind it is cell-based, human. As to conditions: SY5Y cells, mean ± SD of at least three experiments in triplicate. The protocol: (§6) A selection of compounds with several selected activities was performed including sAPPα and sAPPβ, which were further explored. […] The decrease in Aβ could result from a decrease in either β- or γ-secretase cleavage or an increase in the α-secretase cleavage of APP. Thus, medium concentrations of sAPPβ and sAPPα, which are the β- and α-secretase extramembrane shed APP fragments, were determined after cell drug treatments.
as §2, §4, §5

For series [6], the system named is Aβ1–40 peptide secretion. The series can be described thus: Aβ1–40 secretion in cell medium by ELISA. In kind it is cell-based, human. The protocol:
as §1, §2, §4, §5

Series [7] relates to sAPPα. The series can be described thus: sAPPα secretion (MSD sAPPα/sAPPβ Multiplex Kit). In kind it is cell-based, human. As to conditions: concentration increasing sAPPα 1.5-fold vs untreated control. As to the method:
as §6
as §2, with “The cell lysate was further sonicated (30 pulses of 0.5 s, 60 Hz) for 5 min.” left out, “Samples were stored at −80 °C until analysis.” left out
as §5

In series [8] the test system is αCTF (APP carboxy-terminal fragment). Briefly: αCTF level by Western blotting in SY5Y-APP^WT cells. The format is cell-based, human. As to conditions: for EC (20-fold increase): concentration increasing αCTF 20-fold vs untreated control, SY5Y-APP^WT cells, read-out: αCTF (C20). The protocol: as §1, §2, §3
Background: In western blotting, separated proteins are transferred to a membrane and probed.

Series [9] in a line: in vitro. In kind it is cell-based, human. Particulars: human. As to the method: (§7) Cytotoxicity was measured using 3-(4,5-dimethylthiazol-2-yl)-5-(3-carboxymethoxyphenyl)-2-(4-sulfophenyl)-2H-tetrazolium (MTS) tests. SY5Y-APP^695WT cells were plated in a 96-well plate at 3 × 10^4 cells per well and allowed to attach for 24 h. Cells were then incubated for 72 h with 100 µL of DMEM with 10% SVF containing (or not) the defined concentration of drugs. Cytotoxicity was determined by using the colorimetric MTS assay (Cell Titer 96® Aqueous One Solution Cell Proliferation Assay-MTS Promega, Madison, WI, USA) according to the manufacturer’s instructions. Absorbance was read at 490 nm.

For series [10], the system named is p62/LC3. The series can be described thus: Ratio between p62 and LC3 expression levels. In kind it is cell-based, human. As to conditions: compound at 3 µM, 24 h, SY5Y-APP^wt cells. The text has this:
Compounds from both series were selected to first determine the potential relationship between the repression of Aβ1–x production and the increased expression of LC3 and p62. […] We then also considered the ratio between the p62 and LC3 expression levels.
Figure 3 Effect of compounds 24, 33, 34, 57, 65, 67, 70, and 71 on the autophagic flux in SY5Y-APP^wt cells. […] Cell lysates were immunolabeled with the following antibodies: p62 (a), LC3 (b), and β-actin. Statistical significance was set at * p < 0.05, ** p < […], *[…], **** p < 0.0001, and ns as not significant.

Series [11] has as its system SY5Y-APP^695WT cells. Briefly: in vitro. In kind it is cell-based, human. The protocol:
as §7

[12] abbreviates: SY5Y-APP^WT cells, 24 h treatment, mean ± SD of at least three experiments in triplicate, read-out: Aβ1–40 IC50.

Consider four molecules from paper PMC9658513, “Discovery of Compounds That Selectively Repress the Amyloidogenic Processing of the Amyloid Precursor Protein: Design, Synthesis and Pharmacological Evaluation of Diphenylpyrazoles” (International Journal of Molecular Sciences, 2022).

Like-named read-outs stand apart in the source and are kept apart here.

A word on the CC50: it is the concentration giving 50% cytotoxicity. Broadly, the IC50 is the concentration that gives 50% inhibition. As to `CCN(CC)CCCC(C)Nc1ccnc2cc(Cl)ccc12` (centres unmarked) [CQ, chloroquine, reference compound], the CC50 in [1] is 30 µM. Also, the IC50 in [2] is 7 µM.

`Cc1cn(-c2cccc(CN(C)CCCN(C)C)c2)nc1-c1ccc(CN(C)CCCN(C)C)cc1` [Compound 69, [3-(Dimethylamino)propyl][(4-{1-[3-({[3-(dimethylamino)propyl](methyl)amino}methyl)phenyl]-4-methyl-1H-pyrazol-3-yl}phenyl)methyl]methylamine]: the EC (20-fold increase) came to 1 µM in series [3] (Homo sapiens) and 0.6 µM in series [8] (Homo sapiens). Moreover, the IC50 in series [4] (Homo sapiens) is 1.6 ± 0.1 µM; in [5] (Homo sapiens), 2.8 ± 1.1 µM; in series [6] (Homo sapiens, Aβ1–40 and Aβ1–42 not distinguished, read-out: IC50 for Aβ secretion (Aβ1–x production)) it was roughly 1 µM; in series [6] (Homo sapiens, SY5Y-APP^WT cells, 24 h treatment, mean ± SD of at least three experiments in triplicate, read-out: Aβ1–40 IC50), 1.4 ± 0.1 µM. For the same molecule, the “sAPPα C1.5” value in [7] is on record as greater than 5 µM. In addition, the “C20 for CTFα and AICD” value in series [8] (CTFα and AICD together) was “around 1 µM”. Further, in series [9], the midpoint of cytotoxicity, the CC50 at 72 h, lay at 2 µM.

For “N′-[[3-[4-(Dimethylaminomethyl)-3-[4-[3-(dimethylamino)propyl]phenyl] Pyrazol-1-yl]phenyl]methyl]-N,N,N′-trimethyl-propane-1,3-diamine [Compound 34]”, the EC (20-fold increase) was 1.9 µM in series [3] and 1.1 µM in series [8]. Moreover, the values for the IC50 in series [4], in series [5] and in [6] (setting [12]) were 8.3 ± 0.2 µM, 4.5 ± 0.7 µM and 5.7 ± 0.5 µM, respectively. Moreover, the “sAPPα C1.5” value in [7] is greater than 10 µM. For the same molecule, the p62/LC3 in [10] was determined as 0.91. Also, in series [11], the CC50 is greater than 100 µM. The “Cytotox. CC50” value in series [11] was found to be 100 µM.

Take “N′-[[3-[4-[3-(Dimethylamino)propyl]-3-[4-[3-(dimethylamino)propyl]phenyl] Pyrazol-1-yl]phenyl]methyl]-N,N,N′-trimethyl-propane-1,3-diamine [Compound 35]”: the EC (20-fold increase) in [3] turned out to be 5.4 µM; in [8] it was 5.1 µM. In addition, the figures for the IC50 in series [4] and in series [6] (setting [12]) were 13.2 ± 0.2 µM and 12.4 ± 0.6 µM, respectively. The p62/LC3 in [10] was roughly 1. Also, the CC50 in [11] is greater than 100 µM.
